Laboratory results as given in patent publication US20030212034A1, “Method of treatment of obesity and paralyzed muscle and ergogenic aids” (priority 2002, published 2003).

Key:
Assay type in all cases: in vivo, rat
[1] = tested on: hydroxyacyl-CoA dehydrogenase; assay: Muscle hydroxyacyl-CoA dehydrogenase activity after chronic AICAR injection; details: chronic AICAR 1 mg/g daily 4 wk
Method: (§1) To determine the effect of chronic injection of AICAR on muscle enyzme activities or expression and on muscle GLUT4, rats were injected subcutaneously (between 8 and 10 a.m.) with AICAR (1 mg/g) or saline vehicle daily for 28±1 days in succession. Beginning with the first injection, controls were pair fed with AICAR-injected rats. Rats were anesthetized by intraperitoneal injection of pentobarbital sodium 22-25 hours after the last AICAR injection and the white and red regions of the quadriceps and the soleus muscles were removed and frozen as described above. Muscles were kept frozen at −70° C. until analyzed. Liver, heart, kidney, and fat pads were weighed.
(§2) For enzyme activity measurements, 10% homogenates were made from the respective muscles in 175 mM KCl, 10 mM GSH, 2 mM EDTA, pH 7.4. This homogenate was frozen and thawed 3 times and mixed thoroughly prior to enzymatic measurements. For succinate dehydrogenase and lactate dehydrogenase, an aliquot of the homogenate was centrifuged at 700×g for 10 min at 4° C. The remainder of the assays were performed on aliquots and dilutions of the mixed whole homogenate. Assays were performed by the following methods: citrate synthase, succinate dehydrogenase, the mitochondrial fraction of malate dehydrogenase, hexokinase, lactate dehydrogenase, carnitine palmitoyl transferase and hydroxyacyl-CoA dehydrogenase. Srere, P. A. Methods in Enzymology 13:3-6, 1969; King, T. E. Methods Enzymol 10:322-335, 1967; Shonk, C. E. & G. E. Boxer, Cancer Res. 24:709-721, 1964; Uyeda, K., & E. Racker, J. Biol Chem 240:4682-4688, 1965; Pesce, A., et al. J. Biol. Chem. 239:1753-1761, 1964; Baldwin, K. M., et al. Am. J. Physiol 222:373-378, 1972; Mole, P. A., et al. J. Clin. Invest. 50:2323-2330, 1971; Kobayashi, A. et al. J. Biochem. 119:775-782, 1996.

[2] = tested on: lactate dehydrogenase; assay: Muscle lactate dehydrogenase activity after chronic AICAR injection; details: chronic AICAR 1 mg/g daily 4 wk
Method: as §1, §2

[3] = tested on: δ-Aminolevulinate synthase; assay: Muscle δ-aminolevulinate synthase protein by western blot after AICAR injection
Method: […] Beginning with the first injection, controls were pair fed with AICAR-injected rats. […] Muscles were kept frozen at −70° C. until analyzed. Liver, heart, kidney, and fat pads were weighed.
For the chronic effects of AICAR injection muscles were analyzed for glycogen GLUT-4, hexokinase, lactate dehydrogenase, and several mitochondrial enzymes. Hassid, W. Z., & S. Abraham Methods Enzymol. 3:35-36, 1957. GLUT4 was quantitated by western blotting as described previously using GLUT4 polyclonal antibody RaIRGT, Biogenesis, Sandown, N.H.) and horseradish peroxidase-conjugated donkey anti-rabbit IgG (Amersham Life Science, Arlington Heights, Ill.). Holmes, B. F., et al. J. Appl Physiol 87:1990-1995, 1999. δ-Aminolevulinic acid synthase was determined using western blotting techniques as described previously. Li, B., et al. J. Biol. Chem. 274:17534-17540, 1999. […] Cytochrome c was detected by incubating the nitrocellulose blots with a rabbit polyclonal antibody against rabbit heart cytochrome c (Alpha Diagnostics International, San Antonio) followed by horseradish peroxidase-conjugated anti-rabbit immunoglobulin G. Antibody bound GLUT4, δ-Aminolevulinic acid synthase, and cytochrome c were visualized using enhanced chemiluminescence. Protein bands were quantified by densitometry.

[4] = tested on: hexokinase; assay: Muscle hexokinase activity after chronic AICAR injection; details: AICAR 1 mg/g 4 weeks, FIG. 5
Method: as §1, §2

[5] = tested on: cytochrome c; assay: Muscle cytochrome c protein by western blot after chronic AICAR injection; details: AICAR 4 weeks, FIG. 2
Method: as §1
For the chronic effects of AICAR injection muscles were analyzed for glycogen GLUT-4, hexokinase, lactate dehydrogenase, and several mitochondrial enzymes. Hassid, W. Z., & S. Abraham Methods Enzymol. 3:35-36, 1957. GLUT4 was quantitated by western blotting as described previously using GLUT4 polyclonal antibody RaIRGT, Biogenesis, Sandown, N.H.) and horseradish peroxidase-conjugated donkey anti-rabbit IgG (Amersham Life Science, Arlington Heights, Ill.). Holmes, B. F., et al. J. Appl Physiol 87:1990-1995, 1999. δ-Aminolevulinic acid synthase was determined using western blotting techniques as described previously. Li, B., et al. J. Biol. Chem. 274:17534-17540, 1999. […] Protein bands were quantified by densitometry.

[6] = tested on: acetyl-CoA carboxylase (ACC); assay: Acetyl-CoA carboxylase activity at 0.2 mM citrate in muscle after s.c. AICAR injection; details: for ACC: at 0.2 mM citrate
Method: Three days prior to the experiment, jugular cathethers were installed and exteriorized on the back of the neck to allow rapid anesthesia of the rat and rapid blood and tissue collection. Rats were then injected with AICAR (1 mg/g body wt) subcutaneously in sterile 0.9% NaCl or were given 0.9% NaCl (n=6 rats per group). One hour after the subcutaneous injection, rats were anesthetized by intravenous injection of pentobarbital sodium (4.8 mg/100 g body wt). The superficial white and the deep red regions of the quadriceps muscles, and the soleus muscles were quickly removed and frozen with stainless steel clamps at liquid nitrogen temperature.
Resuspended ammonium sulfate precipitates of tissue homogenates were analyzed for AMPK activity and acetyl-CoA carboxylase activity as described previously. Li, B., et al. J. Biol. Chem. 274:17534-17540, 1999; Winder, W. W., & D. G. Hardie Am. J. Physiol. 270:E299-E304, 1996. […] ACC activity at 0.2 mM citrate provides some indication of the in vivo activity of AMPK, since ACC is a target for phosphorylation of AMPK. ACC activity has previously been reported to decrease in response to phosphorylation by AMPK. Winder, W. W., & D. G. Hardie Am. J. Physiol. 270:E299-E304, 1996. The acute experiment was also repeated on rats treated with AICAR or saline for 4 weeks to see if the responses of AMPK and ACC to AICAR persisted for the entire treatment period. In both experiments ATP and CP were measured on neutralized perchloric acid extracts of muscle.

[7] = AICAR-injected rats, single injection, 0.2 mM citrate

With `NC(=O)c1ncn([C@@H]2O[C@H](CO)[C@@H](O)[C@H]2O)c1N` [AICAR, 5-aminoimidazole-4-carboxamide-1-β-D-ribofuranoside] as the molecule, how does the HADH activity ([1]; red quadriceps) read?
The HADH activity was 9.0 ± 0.4 µmol/g/min.

What about the HADH activity ([1]; soleus) of the same molecule?
Its HADH activity is 4.6 ± 0.4 µmol/g/min.

And the HADH activity ([1]; white quadriceps)?
The HADH activity was 4.6 ± 0.3 µmol/g/min.

And the LDH activity ([2]; red quadriceps)?
Its LDH activity is 557 ± 26 µmol/g/min.

What about the LDH activity ([2]; soleus) of the same molecule?
The LDH activity was 162 ± 7 µmol/g/min.

And the LDH activity ([2]; white quadriceps)?
Its LDH activity is 685 ± 20 µmol/g/min.

And the “effect of a single injection on δ-aminolevulinate synthase” value ([3]; single AICAR injection 16 hours prior to tissue collection, preliminary, data not shown)?
Its value is “negative results”.

What about the “muscle content of δ-aminolevulinic acid synthase vs saline controls” value ([3]; white quadriceps, AICAR 4 weeks, FIG. 2) of the same molecule?
The value was “significantly increased”.

What about the “hexokinase activity vs saline-injected controls” value ([4]; red region of the quadriceps) of the same molecule?
The value was “significantly increased”.

And the “hexokinase activity vs saline-injected controls” value ([4]; soleus)?
The value was “increase in hexokinase activity in soleus was statistically significant”.

And the “hexokinase activity vs saline-injected controls” value ([4]; white region of the quadriceps)?
The value was “significantly increased”.

And the “cytochrome c protein vs saline controls” value ([5]; red quadriceps)?
The value was “not in red quadriceps”.

What about the “cytochrome c protein vs saline controls” value ([5]; white quadriceps) of the same molecule?
Its value is “also increased”.

And the “ACC activity in white quadriceps relative to that seen in red quadriceps” value [6, 7]?
Its value is 61%.

And the “ACC activity in white quadriceps relative to that seen in soleus” value [6, 7]?
The value was 44%.

What about the ACC ([6]; red quadriceps, 60 min after AICAR injection, after daily injections for 4 wk) of the same molecule?
Its ACC is 0.21 ± 0.01 nmol/g/min.

And the ACC ([6]; red quadriceps, 60 min after single AICAR injection 1 mg/g s.c., no chronic treatment)?
The ACC was 0.19 ± 0.02 nmol/g/min.

And the ACC ([6]; soleus, 60 min after AICAR injection, after daily injections for 4 wk)?
The ACC was 0.28 ± 0.01 nmol/g/min.

And the ACC ([6]; soleus, 60 min after single AICAR injection 1 mg/g s.c., no chronic treatment)?
The ACC was 0.19 ± 0.02 nmol/g/min.

What about the ACC ([6]; white quadriceps, 60 min after AICAR injection, after daily injections for 4 wk) of the same molecule?
The ACC was 0.12 ± 0.01 nmol/g/min.

And the ACC ([6]; white quadriceps, 60 min after single AICAR injection 1 mg/g s.c., no chronic treatment)?
The ACC was 0.08 ± 0.02 nmol/g/min.
